# In ChEMBL document CHEMBL1131943, “Inhibition of 4-hydroxyphenylpyruvate dioxygenase by sethoxydim, a potent inhibitor of acetyl-coenzyme A carboxylase” (Bioorg Med Chem Lett, 1999):
# Assays:
# [1] = target: 4-hydroxyphenylpyruvate dioxygenase (Sus scrofa) (UniProt Q02110); assay: Compound was evaluated for complete competitive inhibition of 4-hydroxyphenylpyruvate dioxygenase (HPPD)
# [2] = target: T1, 4-hydroxyphenylpyruvate dioxygenase (Sus scrofa, UniProt Q02110); assay: Compound was evaluated for competitive inhibition of 4-hydroxyphenylpyruvate dioxygenase (HPPD) (complete inhibition was observed at a concentration of 0.5-1.0 mM)
# T1 sequence (Q02110 whole entry): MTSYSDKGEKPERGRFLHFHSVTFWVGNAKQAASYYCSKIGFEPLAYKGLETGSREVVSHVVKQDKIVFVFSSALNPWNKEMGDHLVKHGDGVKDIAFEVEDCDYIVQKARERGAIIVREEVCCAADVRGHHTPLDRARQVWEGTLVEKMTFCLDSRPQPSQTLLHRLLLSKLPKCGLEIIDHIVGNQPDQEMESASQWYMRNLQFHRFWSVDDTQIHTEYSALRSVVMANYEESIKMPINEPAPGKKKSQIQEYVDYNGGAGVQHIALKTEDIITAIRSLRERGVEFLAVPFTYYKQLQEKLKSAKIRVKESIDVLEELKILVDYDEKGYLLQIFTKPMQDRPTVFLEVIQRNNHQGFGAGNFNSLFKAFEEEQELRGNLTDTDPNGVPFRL
# [3] = target: T1, 4-hydroxyphenylpyruvate dioxygenase; assay: The inhibitory activity on pig liver 4-hydroxyphenylpyruvate dioxygenase (HPPD) was evaluated.
# [4] = target: T1, 4-hydroxyphenylpyruvate dioxygenase; assay: Inhibitory activity on pig liver 4-hydroxyphenylpyruvate dioxygenase (HPPD) was evaluated
# Sequence of 4-hydroxyphenylpyruvate dioxygenase (Sus scrofa) (Q02110 2-393 limits assumed): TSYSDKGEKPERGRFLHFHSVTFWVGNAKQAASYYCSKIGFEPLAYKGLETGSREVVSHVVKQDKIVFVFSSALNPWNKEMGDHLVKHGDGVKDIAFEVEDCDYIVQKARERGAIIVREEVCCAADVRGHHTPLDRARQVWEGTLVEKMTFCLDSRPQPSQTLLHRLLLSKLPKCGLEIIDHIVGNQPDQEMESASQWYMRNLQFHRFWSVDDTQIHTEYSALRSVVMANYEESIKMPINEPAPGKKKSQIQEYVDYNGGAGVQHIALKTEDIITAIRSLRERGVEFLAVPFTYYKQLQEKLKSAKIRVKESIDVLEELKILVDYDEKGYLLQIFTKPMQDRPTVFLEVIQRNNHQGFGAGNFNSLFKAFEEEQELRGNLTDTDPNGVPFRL
smiles,measurement,setting,value
CCC/C(=N\OCC)C1=C(O)CC(CC(C)SCC)CC1=O (centres undefined) [SETHOXYDIM],IC100,[1],1 mM
same,Ki,[2],300000 nM
O=C1CCCC(=O)C1=C(O)c1ccc(C(F)(F)F)cc1[N+](=O)[O-],IC50,[3],40 nM
CS(=O)(=O)c1ccc(C(O)=C2C(=O)CCCC2=O)c(Cl)c1,IC50,[4],45 nM
